Test results published in patent publication US20250075176A1, “COMPOSITIONS COMPRISING HISTONE […] INHIBITORS OR REVERSE TRANSCRIPTASE INHIBITORS AND USE THEREOF” (FOREVE LABS LTD., priority 2022, published 2025).
Values belong to the compound of their own block, whether it stands above or below them.

Experiments:
PCAF = PCAF (Homo sapiens, UniProt Q92831); details: cited from earlier work
old mouse oocytes = assay: In vitro maturation of old mouse oocytes in medium supplemented with drug; assay type: cell-based; details: for ability to induce maturation (first polar body extrusion and proper chromosome division): IVM media (a-MEM) with inhibitor, 24 hours, curcumin positive control, FIG. 9C-9D
Source text: (§1) Mouse oocyte in vitro maturation: After Euthanasia, ovaries were collected and dissected in L-15 medium (011151A) and supplemented with 200 um IBMX (17018) to prevent meiotic progression. Prophase I arrested oocytes were identified by visualization of the typical germinal vesicle and collected under a binocular using a Stripper (MD-MXL3-STR-CGR). After collection, oocytes were transferred into a-MEM medium (22561021) supplemented with IBMX covered with Mineral oil (M8410-11) to prevent evaporation, for recovery time of 25 min at 37° in a 5% CO2 incubator, and then washed in IBMX free a-MEM medium to initiate meiosis. The oocytes were incubated in a-MEM under oil in the incubator for 6 hours for prophase I or incubated for 19 hours for metaphase II. To assess maturation rates, oocytes were incubated for 19 hours after release and then fixed and stained by Hoechst to examine the entry into the second meiotic division. See below amendments for drug treatments.
Drug treatments: Ovaries were collected and dissected in L-15 medium supplemented with 200 um IBMX to prevent meiotic progression as described above. Prophase I arrested oocytes were collected using a Stripper as described above. After collection, oocytes were transferred to a-MEM medium supplemented with IBMX +the desired drug covered with Mineral oil to prevent evaporation, for 4 hours at 37° in a 5% CO2 incubator (Since Chaetocin and IBMX have a cross reactivity with each other, the pause was not performed in Chaetocin experiments). After the pause, oocytes were washed in IBMX-free a-MEM that contains the drug to initiate meiosis. 19 hours after oocytes were released from IBMX, oocytes were fixed in PFA, permeabilized, and sealed as described above. Chaetocin is a hazarzous substance. For biosafety reasons, Chaetocin supplemented plates and matched controls were placed in a sealed chamber during incubation time.
It was next tested if similar results could be achieved without genetic manipulation. Old oocytes were treated with two different naturally occurring histone acetyltransferase (HAT) inhibitors: curcumin and garcinol. As a negative control, oocytes were given vehicle only. […] Next, a broader panel of naturally occurring HAT inhibitors were tested along with another reverse transcriptase (RT) inhibitor (FIG. 9C). As before, old oocytes were incubated in IVM media (a-MEM) supplemented with the inhibitors for 24 hours and maturation was measured. Oocytes with both first polar body extrusion and proper division of chromosomes (as evaluated by Hoechst staining) were considered as mature. Curcumin was used as a positive control.

human oocytes = assay: Human oocyte IVM with HAT or RT inhibitor supplementation; assay type: cell-based; details: oocytes from young fertility preservation patients, Sage medium with LH and FSH, FIG. 11
Procedure: Human IVM protocol: Germinal vesicle (GV) oocytes were subjected to IVM in a Sage medium (A1-rad Medical) supplemented with 0.075 IU/mL luteinizing hormone (LH) and 0.075 IU/mL follicle stimulating hormone (FSH) overnight. HAT and/or RT inhibitors were added to the overnight culture in some experiments. All naked oocytes that were found were transferred for up to 48 hours of incubation in oocyte maturation medium (Sage In-Vitro Fertilization) supplemented with 0.075 IU/mL human menopausal gonadotropin (hMG) (Menopur, Ferring Pharmaceuticals). HAT and/or RT inhibitors were added to the 48-hour culture in some experiments. After 24 hours of incubation, the media was searched for mature oocytes that were immediately frozen. The media were then incubated for another 24 hours and searched again for other mature oocytes.
To also look at non-arrested human oocytes, we investigated the behavior of another cohort of human oocytes extracted from patients undergoing gonadotoxic treatment and therefore undergoing fertility preservation. In these cases, when hormonal induction and oocyte extraction are not possible due to the young age of the patient or social reasons, ovary surgical extraction is performed. After extraction, ovaries are dissected in medium in the IVF lab, and ovary tissue is cryopreserved. After remission, ovary tissue can be transplanted, and IVF performed. […]

[1] = Acidity of the molecule and effect on medium pH; assay type: physicochemical
Source text: The pH of the medium used was around 7.3 with buffering capacity between 6.9 and 7.6. […] This acidity interfered with maturation and indeed in the case of the two strongly acidic molecules inhibited it. Medium with a greater buffering capacity or a different concentration of these acidic molecules will allow for HAT inhibition induced maturation improvement.

Rad51 = Rad51 nuclear localization (DNA damage response) in treated young oocytes; assay type: cell-based, mouse; details: TSA 100 nm
Procedure: (§2) In situ immunofluorescence: Permeabilization was performed using 0.1% Triton X-100. Cells were cultured in PBS contains 5% BSA for blocking, and first and secondary antibodies were diluted in 0.1 Tween 20 (P9416)/PBS containing 5% BSA. The immune-stained cells were mounted in Vectashield (H-1000) mounting medium containing 80 nM of Hoechst (33342) and sealed on a slide using an Imaging spacer (GBL654002).
(§3) Imaging and quantification: Oocytes were imaged using the Ti-Eclipse Nikon system, with an Andor Zyla nsc05537 camera. […] Every cell was imaged at multiple planes. In order to analyze the images in a quantitatively, a projection of maximum intensity was created. To measure staining intensity, every assessed region was normalized to an equal-size region in the background (outside the area of interest). The intensity score was generated by dividing the intensity in the area of interest by that of the background.
(§4) Drug treatments: Ovaries were collected and dissected in L-15 medium supplemented with 200 um IBMX to prevent meiotic progression as described above. Prophase I arrested oocytes were collected using a Stripper as described above. […]

H3K4me3 = assay: In situ staining for H3K4me3 in treated young oocytes; assay type: cell-based, mouse; details: TSA 100 nm
Procedure: as §2, §3, §4

H3K27Ac = assay: In situ staining for H3K27Ac in treated young oocytes; assay type: cell-based, mouse; details: TSA 100 nm, 4 h arrest then 18 h until MII
Procedure: as §2, §3, §4

H3K9me2 [2] = assay: H3K9me2 staining in treated young oocytes; assay type: cell-based, mouse; details: TSA 100 nm, 4 h arrest then 18 h until MII
Procedure: Chromosome spread and immunofluorescence: Prophase I arrested oocytes were collected from ovaries as above and incubated for 6 hours to reach the first prophase or for 17 hours to reach second meiosis prophase as described above. Matured oocytes were washed in M2 medium and then in acidic Tyrode's Solution to remove the Zona Pellucida. 15 min before the desired time for chromosome spread, oocytes were kept in hypotonic solution, composed of FBS (F7524) diluted in DDW in 1:1 ratio. Oocytes were then spread in spreading solution (1% PFA buffered to 9.2 pH, supplemented with 0.15% Triton X-100and 0.03% […]) on Superfrost plus slides (32090003). To assess ploidy, prophase II spreads were stained with Hoechst to visualize chromatin and CREST to visualize the centromeres, and the imaged chromosome were manually counted.
In situ immunofluorescence: Permeabilization was performed using 0.1% Triton X-100. […]
Imaging and quantification: Oocytes were imaged using the Ti-Eclipse Nikon system, with an Andor Zyla nsc05537 camera. […] In order to analyze the images in a quantitatively, a projection of maximum intensity was created. To measure staining intensity, every assessed region was normalized to an equal-size region in the background (outside the area of interest). […]

L1-encoded ORF1p = assay: In situ immunofluorescence for L1-ORF1p in treated young oocytes; assay type: cell-based, mouse; details: TSA 100 nm
Procedure: as §2, §3, §4

young mouse oocytes = assay: In vitro maturation of young mouse oocytes treated with epigenetic drugs; assay type: cell-based; details: 2-month-old oocytes, Chaetocin 0.5 μM 18 h, FIG. 7A
Source text: as §1, §4

older oocytes = details: aged animals, previously shown; cited from earlier work
H3K9me2 [3] = assay: In situ staining intensity for H3K9me2 (heterochromatin) in old oocytes; assay type: cell-based, mouse; details: aged oocytes cultured with SRT-1720, FIG. 8G
Procedure: Mouse oocytes collection for in situ immunofluorescence: After Euthanasia, ovaries were collected and dissected in M2 medium (M7167). Oocytes were collected from pool of 3 animals at least (numbers of each experiment are noted in legend). Prophase I arrested oocytes were collected under a binocular using a Stripper and washed in hyaluronidase (H4272-30 MG) to remove granulosa cells and acidic Tyrode's Solution (T1788) to remove the Zona Pellucida. The oocytes were fixed using PFA 4% (15710) for 20 min, and then quenched in PBS supplemented with 10 mM glycine and 1% BSA.
as §2
Imaging and quantification: Oocytes were imaged using the Ti-Eclipse Nikon system, with an Andor Zyla nsc05537 camera. […] Every cell was imaged at multiple planes. In order to analyze the images in a quantitatively, a projection of maximum intensity was created. To measure staining intensity, every assessed region was normalized to an equal-size region in the background (outside the area of interest). […]

Chain of PCAF (Q92831 whole entry, species assumed): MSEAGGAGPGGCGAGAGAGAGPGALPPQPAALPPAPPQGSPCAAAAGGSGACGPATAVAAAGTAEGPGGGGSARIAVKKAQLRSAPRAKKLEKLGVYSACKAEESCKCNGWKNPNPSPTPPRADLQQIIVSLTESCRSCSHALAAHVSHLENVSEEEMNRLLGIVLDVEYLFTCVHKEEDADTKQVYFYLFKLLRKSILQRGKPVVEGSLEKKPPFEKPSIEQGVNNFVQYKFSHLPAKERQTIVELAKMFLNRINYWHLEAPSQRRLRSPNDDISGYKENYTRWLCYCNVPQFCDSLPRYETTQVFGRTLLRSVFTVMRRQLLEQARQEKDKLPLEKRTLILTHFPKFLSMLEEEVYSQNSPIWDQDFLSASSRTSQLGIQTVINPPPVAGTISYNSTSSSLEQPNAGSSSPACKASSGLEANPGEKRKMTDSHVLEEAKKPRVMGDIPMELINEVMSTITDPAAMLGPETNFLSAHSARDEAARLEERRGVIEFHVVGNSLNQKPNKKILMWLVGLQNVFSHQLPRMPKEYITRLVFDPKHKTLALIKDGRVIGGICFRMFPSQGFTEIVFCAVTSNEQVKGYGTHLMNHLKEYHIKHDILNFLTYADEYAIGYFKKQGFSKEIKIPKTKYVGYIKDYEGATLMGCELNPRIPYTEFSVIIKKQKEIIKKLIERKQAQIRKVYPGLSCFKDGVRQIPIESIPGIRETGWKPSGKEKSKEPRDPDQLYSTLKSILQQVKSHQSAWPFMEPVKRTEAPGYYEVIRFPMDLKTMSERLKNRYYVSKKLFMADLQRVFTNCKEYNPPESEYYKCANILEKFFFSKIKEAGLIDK

Compound: CC1=CC(=O)c2c(O)cccc2C1=O [Plumbagin]
PCAF inhibition (PCAF): do not
ability to induce maturation (first polar body extrusion and proper chromosome division) (old mouse oocytes; old oocytes): comparable to curcumin

Compound: COc1cc(/C=C/C(=O)CC(=O)/C=C/c2ccc(O)c(OC)c2)ccc1O [Curcumin]
maturation ability of human oocytes (human oocytes): did not impair their maturation ability and even increased it
PCAF inhibition (PCAF): do not
maturation rate at the highest dose (old mouse oocytes; old oocytes, curcumin 10 um, FIG. 9A): over 80%
maturation rate versus vehicle (old mouse oocytes; old oocytes, vehicle-only negative control, FIG. 9A-9B): dose dependent increase

Compound: CC(C)=CCC[C@]1(C)C=Cc2c(O)c3c(c(CC=C(C)C)c2O1)O[C@]12C(=C[C@@H]4C[C@H]1C(C)(C)O[C@@]2(C/C=C(/C)C(=O)O)C4=O)C3=O [gambogic acid]
acidity [1]: highly acidic
PCAF inhibition (PCAF): strongly inhibit
ability to induce maturation (first polar body extrusion and proper chromosome division) (old mouse oocytes; old oocytes): did not produce increased maturation

Compound: CC(/C=C/C(=O)NO)=C\[C@@H](C)C(=O)c1ccc(N(C)C)cc1 [TSA, Trichostatin A]
DNA damage response (Rad51 nuclear localization) (Rad51): elevated
staining for H3K4me3 (H3K4me3): unchanged
H3K27Ac in situ staining (H3K27Ac): increase
H3K9me2 in situ staining (H3K9me2 [2]): decrease
L1-ORF1p localization (L1-encoded ORF1p): accumulates in nuclei
L1-encoded ORF1p overall signal level (L1-encoded ORF1p): do not show a L1-encoded ORF1p elevation

Compound: CN1C(=O)[C@@]23C[C@]4([C@]56C[C@@]78SS[C@@](CO)(C(=O)N7[C@H]5Nc5ccccc56)N(C)C8=O)c5ccccc5N[C@@H]4N2C(=O)[C@]1(CO)SS3 [Chaetocin]
reduction in oocytes that properly mature (young mouse oocytes): 18%

Compound: NC(=O)c1ccc[n+]([C@@H]2O[C@H](COP(=O)([O-])OP(=O)(O)OC[C@H]3O[C@@H](n4cnc5c(N)ncnc54)[C@H](O)[C@@H]3O)[C@@H](O)[C@H]2O)c1 [NAD+, nicotinamide adenine dinucleotide]
oocyte quality (older oocytes): rejuvenated oocyte quality

acidity [1]: highly acidic
Compound: CCCCCCCCCCCCCCCc1cccc(O)c1C(=O)O [anacardic acid]
PCAF inhibition (PCAF): strongly inhibit
ability to induce maturation (first polar body extrusion and proper chromosome division) (old mouse oocytes; old oocytes): did not produce increased maturation

acidity [1]: more weakly acidic
Compound: O=C(O[C@@H]1Cc2c(O)cc(O)cc2O[C@@H]1c1cc(O)c(O)c(O)c1)c1cc(O)c(O)c(O)c1 [EGCG, Epigallocatechin gallate]
ability to induce maturation (first polar body extrusion and proper chromosome division) (old mouse oocytes; old oocytes): did not produce increased maturation

Compound: O=C(Nc1ccccc1-c1cn2c(CN3CCNCC3)csc2n1)c1cnc2ccccc2n1 [SRT-1720]
heterochromatin (H3K9me2 staining intensity) (H3K9me2 [3]): heterochromatin elevation
maturation ability of treated cells (old mouse oocytes; aged oocytes cultured with SRT-1720, FIG. 8H): recovered maturation ability
